# Laboratory results: patent US9758538B2, “Pyrimidine derivatives” (PFIZER INC., priority 2015, dated 2017)
# Target: truncated PI3Kα (p110α/iSH2 p85α), PI3KA_Act (Homo sapiens (Human), UniProt P42336)
# Experiment: PI3Kα biochemical kinase assay, fluorescence polarization format (PI3KA_Act)
# Settings: 0.5 nM p110α/iSH2 p85, 1 mM ATP, 30 μM PIP2, 15-min preincubation; Morrison equation fit; read-out: PI3KA_Act Ki
# Procedure: Enzyme Production for Biochemical Assay: p110α-iSH2 p85α Complex (Full Length p110α and p85α iSH2)(“PI3KA Act”)
# Gene encoding p110α subunit was subcloned into polyhedrine promoter while gene encoding p85α niSH2 domains was subcloned into p10 promoter. […] Recombinant baculovirus was generated using Bac-to-Bac protocol (Life Technologies, Carlsbad, Calif.). Large scale expression was conducted in Sf21 (Life Technologies, Carlsbad, Calif.) cells at a multiplicity of infection (“MOI”)=1 for 48 hours. Cells were lyzed in 50 mM Tris pH 8.0, 250 mM NaCl, 5% glycerol, 0.25 mM TCEP, and 20 mM imidazole. The p110α-niSH2 p85α complex was purified from clarified supernatant using Immobilized Metalo Affinity Chromatography (“IMAC”). The protein was eluted from the column using 50 mM Tris pH 8.0, 200 mM NaCl, 0.25 mM TCEP, and 200 mM imidazole. Following elution p110α-niSH2 p85α complex was dialyzed against 4 liters of 50 mM Tris pH 8.0, 200 mM NaCl, 0.25 mM TCEP, and 40 mM imidazole in the presence of PreScission Protease (1:70 molar ratio of Protease to Protein) and TEV protease (1:40 molar ratio protease to protein) for 16 hours at 4° C. The protein was further purified using reverse IMAC to remove cleaved histidine tag and contaminants captured during initial IMAC purification. The mixture of p110α-iSH2 p85α complex and cleaved nSH2 was recovered in reverse IMAC 40 mM imidazole flow through and 60 mM imidazole wash fractions. Those fractions were pulled together and loaded on Superdex 200 26/60 SEC column equilibrated in 25 mM Tris, pH 8.0, 100 mM NaCl, 2% glycerol, and 2 mM TCEP.
# The enzymatic reactions were conducted in 50 μL volumes in 96-well plates. […] The reactions were incubated for 30 min at room temperature, stopped with EDTA pH 8 (10 mM final concentration). […] The plate was shaken for 30 minutes and fluorescence polarization values were measured on an LJL Analyst HT plate reader (Molecular Devices, Sunnyvale, Calif.).
# truncated PI3Kα (p110α/iSH2 p85α), PI3KA_Act, sequence (P42336 whole entry, the tested form may be a part): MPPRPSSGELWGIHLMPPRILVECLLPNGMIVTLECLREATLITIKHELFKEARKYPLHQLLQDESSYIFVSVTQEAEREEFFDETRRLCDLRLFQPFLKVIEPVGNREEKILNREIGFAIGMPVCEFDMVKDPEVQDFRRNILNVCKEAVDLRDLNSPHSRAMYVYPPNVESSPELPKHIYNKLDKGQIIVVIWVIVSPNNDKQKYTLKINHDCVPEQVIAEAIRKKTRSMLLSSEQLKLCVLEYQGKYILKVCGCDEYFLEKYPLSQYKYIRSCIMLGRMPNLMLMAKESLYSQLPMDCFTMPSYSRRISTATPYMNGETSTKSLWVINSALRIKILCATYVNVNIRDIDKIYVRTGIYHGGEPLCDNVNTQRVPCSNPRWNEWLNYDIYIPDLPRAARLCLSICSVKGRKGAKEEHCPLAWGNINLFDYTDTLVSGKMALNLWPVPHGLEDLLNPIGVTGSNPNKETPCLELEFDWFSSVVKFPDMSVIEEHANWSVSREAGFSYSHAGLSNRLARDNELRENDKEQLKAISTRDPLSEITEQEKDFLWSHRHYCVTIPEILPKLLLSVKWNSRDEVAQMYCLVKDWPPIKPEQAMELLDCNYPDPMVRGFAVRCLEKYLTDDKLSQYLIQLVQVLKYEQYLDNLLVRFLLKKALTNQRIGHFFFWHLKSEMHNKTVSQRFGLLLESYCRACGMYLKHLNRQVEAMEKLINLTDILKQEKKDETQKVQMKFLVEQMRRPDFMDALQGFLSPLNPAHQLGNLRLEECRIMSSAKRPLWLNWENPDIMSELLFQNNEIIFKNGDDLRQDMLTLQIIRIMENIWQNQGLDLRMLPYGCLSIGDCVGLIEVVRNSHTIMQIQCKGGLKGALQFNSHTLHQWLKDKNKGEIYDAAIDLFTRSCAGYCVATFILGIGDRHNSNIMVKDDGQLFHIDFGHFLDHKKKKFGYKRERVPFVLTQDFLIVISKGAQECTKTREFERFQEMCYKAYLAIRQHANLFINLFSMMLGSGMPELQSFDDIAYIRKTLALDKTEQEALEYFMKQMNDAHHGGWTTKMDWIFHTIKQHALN
row,Structure (SMILES),Ki [nM]
1,"CCOC(=O)N1CC[C@](CO)(Nc2cc(-c3cnc(N)nc3)nc(N3CCOC[C@@H]3C)n2)C1 [Example 64, ethyl (3S)-3-({2′-amino-2-[(3S)-3-methylmorpholin-4-yl]-4,5′-bipyrimidin-6-yl}amino)-3-(hydroxymethyl)pyrrolidine-1-carboxylate]",< 0.018
2,"Cc1ncc(-c2cc(N[C@@]3(CO)CCN(C(=O)C4(F)CC4)C3)nc(N3CCOCC3)n2)cn1 [Example 136, (1-fluorocyclopropyl)[(3S)-3-(hydroxymethyl)-3-{[2′-methyl-2-(morpholin-4-yl)-4,5′-bipyrimidin-6-yl]amino}pyrrolidin-1-yl]methanone]",0.739
3,"COC(=O)N1CC[C@](CO)(Nc2cc(-c3cnc(N)nc3C)nc(N3CCOCC3)n2)C1 [Example 59, methyl (3S)-3-{[2′-amino-4′-methyl-2-(morpholin-4-yl)-4,5′-bipyrimidin-6-yl]amino}-3-(hydroxymethyl)pyrrolidine-1-carboxylate]",0.18
4,"Nc1ncc(-c2cc(N[C@@]3(CO)CCN(C(=O)NCC(F)(F)F)C3)nc(N3CCOCC3)n2)cn1 [Example 133, (3S)-3-{[2′-amino-2-(morpholin-4-yl)-4,5′-bipyrimidin-6-yl]amino}-3-(hydroxymethyl)-N-(2,2,2-trifluoroethyl)pyrrolidine-1-carboxamide]",0.795
5,"CN(c1cc(-c2cnc(N)nc2)nc(N2CCOCC2)n1)C1(CO)CCN(C(=O)OC(C)(C)C)C1 (centres unmarked) [Example 25, tert-butyl 3-{[2′-amino-2-(morpholin-4-yl)-4,5′-bipyrimidin-6-yl](methyl)amino}-3-(hydroxymethyl)pyrrolidine-1-carboxylate]",0.049
6,"CN(c1cc(-c2cnc(N)nc2)nc(N2CCOCC2)n1)C1(CO)CCN(C(=O)OC(C)(C)C)C1 (single isomer, unassigned) [Example 27, tert-butyl 3-{[2′-amino-2-(morpholin-4-yl)-4,5′-bipyrimidin-6-yl](methyl)amino}-3-(hydroxymethyl)pyrrolidine-1-carboxylate]",0.717
7,"Nc1ncc(-c2cc(N[C@@]3(CO)CCN(C(=O)c4ncc[nH]4)C3)nc(N3CCOCC3)n2)cn1 [Example 86, [(3S)-3-{[2′-amino-2-(morpholin-4-yl)-4,5′-bipyrimidin-6-yl]amino}-3-(hydroxymethyl)pyrrolidin-1-yl](1H-imidazol-2-yl)methanone]",0.026
8,"Nc1ncc(-c2cc(N[C@@]3(CO)CCCN(C(=O)OCC(F)F)C3)nc(N3CCOCC3)n2)cn1 [Example 141, 2,2-difluoroethyl (3S)-3-{[2′-amino-2-(morpholin-4-yl)-4,5′-bipyrimidin-6-yl]amino}-3-(hydroxymethyl)piperidine-1-carboxylate]",0.043
9,"CCOC(=O)N1CC[C@](CO)(Nc2cc(-c3cnc(C)nc3)nc(N3CCOCC3)n2)C1 [Example 130, ethyl (3S)-3-(hydroxymethyl)-3-{[2′-methyl-2-(morpholin-4-yl)-4,5′-bipyrimidin-6-yl]amino}pyrrolidine-1-carboxylate]",0.83
10,"Nc1ncc(-c2nc(N3CCOCC3)nc(N[C@@]3(CO)CCNC3)c2F)cn1 [Example 137, [(3S)-3-{[2′-amino-5-fluoro-2-(morpholin-4-yl)-4,5′-bipyrimidin-6-yl]amino}pyrrolidin-3-yl]methanol]",48.7
11,"CCOC(=O)N1CC[C@](CO)(Nc2nc(-c3cnc(N)nc3)nc(N3CCOCC3)n2)C1 [Example 82, ethyl (3S)-3-{[4-(2-aminopyrimidin-5-yl)-6-(morpholin-4-yl)-1,3,5-triazin-2-yl]amino}-3-(hydroxymethyl)pyrrolidine-1-carboxylate]",0.027
12,"Nc1ncc(-c2nc(N[C@@]3(CO)CCN(C(=O)OCC(F)F)C3)nc(N3CCOCC3)n2)cn1 [Example 99, 2,2-difluoroethyl (3S)-3-{[4-(2-aminopyrimidin-5-yl)-6-(morpholin-4-yl)-1,3,5-triazin-2-yl]amino}-3-(hydroxymethyl)pyrrolidine-1-carboxylate]",0.027
13,"CCOC(=O)N1CC[C@](CO)(Nc2cc(-c3cnc(C)c(F)c3)nc(N3CCOCC3)n2)C1 [Example 129, ethyl (3S)-3-{[6-(5-fluoro-6-methylpyridin-3-yl)-2-(morpholin-4-yl)pyrimidin-4-yl]amino}-3-(hydroxymethyl)pyrrolidine-1-carboxylate]",8.29
14,"CC(C)C(=O)N1CC[C@](C)(Nc2nc(N3CCOCC3)nc(-c3cnc(N)nc3)c2F)C1 [Example 107, 1-[(3S)-3-{[2′-amino-5-fluoro-2-(morpholin-4-yl)-4,5′-bipyrimidin-6-yl]amino}-3-methylpyrrolidin-1-yl]-2-methylpropan-1-one]",0.23
15,"Nc1ncc(-c2cc(N[C@@]3(CO)CCN(C(=O)C4(F)CNC4)C3)nc(N3CCOCC3)n2)cn1 [Example 97, [(3S)-3-{[2′-amino-2-(morpholin-4-yl)-4,5′-bipyrimidin-6-yl]amino}-3-(hydroxymethyl)pyrrolidin-1-yl](3-fluoroazetidin-3-yl)methanone]",< 0.018
16,"CCOC(=O)N1CC[C@](COC)(Nc2cc(-c3cnc(N)nc3)nc(N3CCOCC3)n2)C1 [Example 121, ethyl (3S)-3-{[2′-amino-2-(morpholin-4-yl)-4,5′-bipyrimidin-6-yl]amino}-3-(methoxymethyl)pyrrolidine-1-carboxylate]",0.15
17,"CC(C)CC(=O)N1CC[C@](CO)(Nc2cc(-c3cnc(N)nc3)nc(N3CCOCC3)n2)C1 [Example 57, 1-[(3S)-3-{[2′-amino-2-(morpholin-4-yl)-4,5′-bipyrimidin-6-yl]amino}-3-(hydroxymethyl)pyrrolidin-1-yl]-3-methylbutan-1-one]",0.116
18,"C[C@H]1COCCN1c1nc(N[C@@]2(CF)CCN(C(=O)OC(C)(C)C)C2)cc(-c2cnc(N)nc2)n1 [Example 124, tert-butyl (3S)-3-({2′-amino-2-[(3S)-3-methylmorpholin-4-yl]-4,5′-bipyrimidin-6-yl}amino)-3-(fluoromethyl)pyrrolidine-1-carboxylate]",0.046
19,"CN1CCC(N2CC[C@](CO)(Nc3cc(-c4cnc(N)nc4)nc(N4CCOCC4)n3)C2)C1=O (stereo partly drawn) [Example 76, (3S)-3-{[2′-amino-2-(morpholin-4-yl)-4,5′-bipyrimidin-6-yl]amino}-3-(hydroxymethyl)-1′-methyl-1,3′-bipyrrolidin-2′-one]",1.82
20,"CS(=O)(=O)N1CC[C@](CO)(Nc2cc(-c3cnc(N)nc3)nc(N3CCOCC3)n2)C1 [Example 33, [(3S)-3-{[2′-amino-2-(morpholin-4-yl)-4,5′-bipyrimidin-6-yl]amino}-1-(methylsulfonyl)pyrrolidin-3-yl]methanol]",0.3
21,"Nc1ncc(-c2cc(N[C@@]3(CO)CCN(CC4CC4)C3)nc(N3CCOCC3)n2)cn1 [Example 71, [(3S)-3-{[2′-amino-2-(morpholin-4-yl)-4,5′-bipyrimidin-6-yl]amino}-1-(cyclopropylmethyl)pyrrolidin-3-yl]methanol]",9.47
22,"CC(C)OC(=O)N1CC[C@](CO)(Nc2nc(-c3cnc(N)nc3)nc(N3CCOCC3)n2)C1 [Example 83, propan-2-yl (3S)-3-{[4-(2-aminopyrimidin-5-yl)-6-(morpholin-4-yl)-1,3,5-triazin-2-yl]amino}-3-(hydroxymethyl)pyrrolidine-1-carboxylate]",0.215
23,"C[C@H]1COCCN1c1nc(N[C@@]2(CO)CCN(C(=O)OC(C)(C)C)C2)cc(-c2cnc(N)nc2)n1 [Example 36, tert-butyl (3S)-3-({2′-amino-2-[(3S)-3-methylmorpholin-4-yl]-4,5′-bipyrimidin-6-yl}amino)-3-(hydroxymethyl)pyrrolidine-1-carboxylate]",< 0.018
24,"CCOC(=O)N1CC[C@](CO)(Nc2nc(-c3cnc(N)nc3)nc(N3CCOC[C@@H]3C)n2)C1 [Example 118, ethyl (3S)-3-({4-(2-aminopyrimidin-5-yl)-6-[(3S)-3-methylmorpholin-4-yl]-1,3,5-triazin-2-yl}amino)-3-(hydroxymethyl)pyrrolidine-1-carboxylate]",< 0.018
25,"CC(C)(C)OC(=O)N1CCC(CO)(Oc2cc(-c3cnc(N)nc3)nc(N3CCOCC3)n2)C1 (racemic) [Example 7, tert-butyl 3-{[2′-amino-2-(morpholin-4-yl)-4,5′-bipyrimidin-6-yl]oxy}-3-(hydroxymethyl)pyrrolidine-1-carboxylate]",0.058
26,"C[C@H]1COCCN1c1nc(N[C@@]2(CO)CCN(C(=O)OC(C)(C)C)C2)c(F)c(-c2cnc(N)nc2)n1 [Example 111, tert-butyl (3S)-3-({2′-amino-5-fluoro-2-[(3S)-3-methylmorpholin-4-yl]-4,5′-bipyrimidin-6-yl}amino)-3-(hydroxymethyl)pyrrolidine-1-carboxylate]",< 0.018
